pIC50: −log10 of the molar value.
Legend:
[1] = tested on: SW48 (PIK3CA mut); test: Tumor cell proliferation, CCK8 method, SW48; type: cell-based; conditions: Homo sapiens; CCK8, SW48; read-out: SW48 (PIK3CA mut) proliferation IC50
Procedure: (§1) The IC50 value was calculated using Graphpad Prism V5.0 software.

[2] = target: T1, PI3Kδ (Homo sapiens, UniProt O00329); test: PI3Kδ molecular activity test (ADP-GLO); type: biochemical; conditions: recombinant protein
T1 construct: purchased Carna Bioscience
Procedure: (§2) Instrument: ELISA Reader Envision™ (PerkinElmer, USA)
(§3) Materials: Human recombinant PI3K and PI3Kδ proteins, purchased from Carna Bioscience; ADP-GLO kit, purchased from Promega.
(§4) Take the PI3Kα Molecular Activity Test as an Example to Describe the Text Method of the PI3K Subtypes
(§5) PI3K-α recombinant protein and substrate ATP were diluted with kinase reaction buffer (50 mM Tris-HCl, pH 7.4, 2.1 mM DTT, 0.05% Tween-20, 10 mM MgCl2). […] The specific reaction system was 2% of DMSO, 0.8 ng/μL PI3K-α, and 100 μM ATP, the positive compound control groups and control wells were set, and there were 3 multiple-wells for each concentration of each sample. After incubating for 2 hours at room temperature, ADP-GLO Reagent and Kinase Detection Reagent were added respectively, and then Envision™ was used to detect the […] readings. The activity rate of the samples were calculated by the sample readings, and the calculation formula was: activity rate=(ODcompound−ODcontrol)/(ODDMSO−ODcontro) ×100%.

[3] = target: T2, PI3Kα (Homo sapiens, UniProt P42336); test: PI3Kα molecular activity test (ADP-GLO); type: biochemical; conditions: for Selectivity (PI3Kδ IC50/PI3KαIC50): PI3Kδ IC50/PI3Kα IC50; for pIC50: recombinant protein, 100 μM ATP, 2 hours at room temperature
T2 construct: purchased Carna Bioscience
Procedure: as §2, §3, §4, §5

[4] = tested on: ZR-75-1 (PTEN loss); test: Tumor cell proliferation, CCK8 method, ZR-75-1; type: cell-based; conditions: Homo sapiens; CCK8, ZR-75-1
Procedure: as §1

[5] = tested on: KPL4 (PIK3CA mut); test: Tumor cell proliferation, CCK8 method, KPL4; type: cell-based; conditions: CCK8, KPL4; read-out: KPL4 (PIK3CA mut) proliferation IC50
Procedure: as §1

[6] = tested on: MCF7 (PIK3CA mut); test: Tumor cell proliferation, CCK8 method, MCF7; type: cell-based, human; conditions: Homo sapiens; CCK8, MCF7; read-out: MCF7 (PIK3CA mut) proliferation IC50
Procedure: as §1

T2 sequence (P42336 whole entry): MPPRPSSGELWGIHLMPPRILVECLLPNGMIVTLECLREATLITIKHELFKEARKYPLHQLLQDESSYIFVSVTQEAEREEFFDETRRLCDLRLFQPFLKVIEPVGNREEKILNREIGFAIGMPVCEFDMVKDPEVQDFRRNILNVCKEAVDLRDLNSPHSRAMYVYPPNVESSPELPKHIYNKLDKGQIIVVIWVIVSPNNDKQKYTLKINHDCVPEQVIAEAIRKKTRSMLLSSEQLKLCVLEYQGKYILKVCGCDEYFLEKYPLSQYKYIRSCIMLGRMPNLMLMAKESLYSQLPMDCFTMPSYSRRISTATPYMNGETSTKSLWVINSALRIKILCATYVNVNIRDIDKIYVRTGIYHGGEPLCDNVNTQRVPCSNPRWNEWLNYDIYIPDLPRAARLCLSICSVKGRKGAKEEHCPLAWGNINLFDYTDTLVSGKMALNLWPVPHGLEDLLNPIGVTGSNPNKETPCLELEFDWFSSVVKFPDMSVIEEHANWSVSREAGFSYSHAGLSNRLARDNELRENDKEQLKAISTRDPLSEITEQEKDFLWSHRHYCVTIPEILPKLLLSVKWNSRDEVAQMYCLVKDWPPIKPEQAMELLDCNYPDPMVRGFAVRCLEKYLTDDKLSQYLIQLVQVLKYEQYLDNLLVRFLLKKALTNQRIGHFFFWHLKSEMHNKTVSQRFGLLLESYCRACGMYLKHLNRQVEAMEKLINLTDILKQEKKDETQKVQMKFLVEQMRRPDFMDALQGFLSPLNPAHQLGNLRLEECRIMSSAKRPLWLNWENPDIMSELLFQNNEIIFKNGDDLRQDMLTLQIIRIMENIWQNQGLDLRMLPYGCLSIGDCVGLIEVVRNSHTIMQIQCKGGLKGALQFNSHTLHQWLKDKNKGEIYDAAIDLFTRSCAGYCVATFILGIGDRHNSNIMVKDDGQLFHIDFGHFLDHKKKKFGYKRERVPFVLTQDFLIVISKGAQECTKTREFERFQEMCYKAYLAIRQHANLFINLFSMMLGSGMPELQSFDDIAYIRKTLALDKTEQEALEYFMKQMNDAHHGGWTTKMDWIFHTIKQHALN
T2 sequence (P27986 whole entry partner): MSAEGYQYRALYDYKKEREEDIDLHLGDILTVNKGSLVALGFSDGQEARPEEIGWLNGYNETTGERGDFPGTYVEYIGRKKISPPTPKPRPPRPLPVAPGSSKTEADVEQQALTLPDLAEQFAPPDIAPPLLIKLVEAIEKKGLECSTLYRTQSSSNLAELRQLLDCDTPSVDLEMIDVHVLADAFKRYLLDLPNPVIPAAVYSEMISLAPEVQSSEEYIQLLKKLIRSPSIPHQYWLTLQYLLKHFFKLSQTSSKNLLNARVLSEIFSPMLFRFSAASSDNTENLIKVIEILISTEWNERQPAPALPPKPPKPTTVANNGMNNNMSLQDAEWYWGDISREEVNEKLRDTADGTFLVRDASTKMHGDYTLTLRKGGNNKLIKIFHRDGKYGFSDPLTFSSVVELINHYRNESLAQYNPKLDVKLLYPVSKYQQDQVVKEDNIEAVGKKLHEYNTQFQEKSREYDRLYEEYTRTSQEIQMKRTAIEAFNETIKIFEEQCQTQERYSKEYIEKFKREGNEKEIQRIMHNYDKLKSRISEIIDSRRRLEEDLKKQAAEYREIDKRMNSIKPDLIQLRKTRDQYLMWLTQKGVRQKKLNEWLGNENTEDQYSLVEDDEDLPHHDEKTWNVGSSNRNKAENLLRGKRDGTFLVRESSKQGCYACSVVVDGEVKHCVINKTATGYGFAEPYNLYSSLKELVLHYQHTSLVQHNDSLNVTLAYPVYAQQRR
T1 sequence (O00329 whole entry): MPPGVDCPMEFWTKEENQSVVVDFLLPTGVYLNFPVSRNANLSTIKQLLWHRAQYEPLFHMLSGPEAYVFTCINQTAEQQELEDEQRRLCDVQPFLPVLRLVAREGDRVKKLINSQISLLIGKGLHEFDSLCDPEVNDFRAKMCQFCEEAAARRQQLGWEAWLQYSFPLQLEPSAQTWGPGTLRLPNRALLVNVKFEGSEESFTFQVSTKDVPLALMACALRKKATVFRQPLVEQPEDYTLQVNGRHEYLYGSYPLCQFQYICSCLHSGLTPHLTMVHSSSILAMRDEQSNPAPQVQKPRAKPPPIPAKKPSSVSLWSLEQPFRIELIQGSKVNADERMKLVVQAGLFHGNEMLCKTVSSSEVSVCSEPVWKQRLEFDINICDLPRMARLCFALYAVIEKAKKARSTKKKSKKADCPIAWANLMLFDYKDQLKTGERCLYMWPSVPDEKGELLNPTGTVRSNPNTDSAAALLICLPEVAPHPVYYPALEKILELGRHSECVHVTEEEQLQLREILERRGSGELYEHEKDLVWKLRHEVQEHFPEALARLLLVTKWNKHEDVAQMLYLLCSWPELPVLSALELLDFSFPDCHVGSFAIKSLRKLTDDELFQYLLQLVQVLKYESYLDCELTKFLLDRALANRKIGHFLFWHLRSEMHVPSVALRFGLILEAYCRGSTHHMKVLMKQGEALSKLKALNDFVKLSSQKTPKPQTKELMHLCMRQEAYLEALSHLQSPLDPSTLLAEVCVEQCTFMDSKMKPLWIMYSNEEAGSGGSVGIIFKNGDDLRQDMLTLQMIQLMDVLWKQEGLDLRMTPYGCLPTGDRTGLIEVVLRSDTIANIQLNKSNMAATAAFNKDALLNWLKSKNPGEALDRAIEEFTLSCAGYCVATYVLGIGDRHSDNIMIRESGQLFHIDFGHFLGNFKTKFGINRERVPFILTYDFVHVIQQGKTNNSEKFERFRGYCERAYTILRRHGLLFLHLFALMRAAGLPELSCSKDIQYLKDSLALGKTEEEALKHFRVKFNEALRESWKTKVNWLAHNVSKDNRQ
T1 sequence (P27986 whole entry partner): as the sequence (P27986 whole entry partner) above

Row | pIC50 [1] | pIC50 [2] | Selectivity (PI3Kδ IC50/PI3KαIC50) [3] | pIC50 [3] | pIC50 [4] | pIC50 [5] | pIC50 [6] | SMILES
1 | 6.70 to 7.70 | > 7.70 | I (“I” represents <5 times) | > 7.70 | 6.70 to 7.70 | 6.70 to 7.70 | > 7.70 | CCn1c(NC(=O)c2cnc(N)nc2)cc2c(OC)c(OCCCN3CCOCC3)ccc2c1=O [8b′-1]
2 | 6.70 to 7.70 | 6.00 to 6.70 | II (“II” represents 5-10 times) | > 7.70 | 6.00 to 6.70 | 6.70 to 7.70 | > 7.70 | CCn1c(NC(=O)c2ccc(N)nc2)nc2c(OC)c(OCC(=O)NCCN3CCOCC3)ccc2c1=O [8b-48, 6-amino-N-(3-ethyl-8-methoxy-7-(2-((2-morpholinoethyl)amino)-2-oxoethoxy)-4-oxo-3,4-dihydroquinazolin-2-yl)nicotinamide]
3 | 6.00 to 6.70 | 6.70 to 7.70 | II (“II” represents 5-10 times) | > 7.70 | 6.00 to 6.70 | 6.00 to 6.70 | 6.70 to 7.70 | Cn1c(NC(=O)c2cnc(N)nc2)nc2c3c(ccc2c1=O)OCCCCCCO3 [14a-6]
4 | 6.70 to 7.70 | > 7.70 | I (“I” represents <5 times) | > 7.70 | 6.70 to 7.70 | 6.70 to 7.70 | > 7.70 | Cn1c(NC(=O)c2cnc(N)nc2)nc2c3c(ccc2c1=O)OCCCCCCCCO3 [14a-8]

The next lines start with the compound.

Row | SMILES | pIC50 [1] | pIC50 [2] | Selectivity (PI3Kδ IC50/PI3KαIC50) [3] | pIC50 [3] | pIC50 [4] | pIC50 [5] | pIC50 [6]
5 | COc1c(OC[C@H](O)CN2CCOCC2)ccc2c(=O)n(C)c(NC(=O)c3ccc(N)nc3)nc12 [8a-39, (R)-6-amino-N-(7-(2-hydroxy-3-morpholinopropoxy)-8-methoxy-3-methyl-4-oxo-3,4-dihydroquinazolin-2-yl) nicotinamide] | 6.70 to 7.70 | 6.70 to 7.70 | II (“II” represents 5-10 times) | > 7.70 | 6.00 to 6.70 | 6.70 to 7.70 | > 7.70
6 | CCn1c(NC(=O)c2cnc(N)nc2)nc2c(OC)c(OCC(N)=O)ccc2c1=O [8b-2] | 6.70 to 7.70 | 6.70 to 7.70 | III (“III” represents >10 times) | > 7.70 | 6.70 to 7.70 | 6.70 to 7.70 | > 7.70
7 | CCn1c(NC(=O)c2cnc(N)nc2)nc2c(OC)c(OC[C@H](O)CN3CCOCC3)ccc2c1=O [8b-28, (R)-2-amino-N-(3-ethyl-7-(2-hydroxy-3-morpholinopropoxy)-8-methoxy-4-oxo-3,4-dihydroquinazolin-2-yl) pyrimidine-5-carboxamide] | 6.70 to 7.70 | 6.00 to 6.70 | II (“II” represents 5-10 times) | > 7.70 | 6.00 to 6.70 | 6.70 to 7.70 | > 7.70
8 | CCn1c(NC(=O)c2ccc(N)nc2)nc2c(OC)c(OC[C@@H](O)CN3CCOCC3)ccc2c1=O [8b-46, (S)-6-amino-N-(3-ethyl-7-(2-hydroxy-3-morpholinopropoxy)-8-methoxy-4-oxo-3,4-dihydroquinazolin-2-yl) nicotinamide] | 6.70 to 7.70 | 6.00 to 6.70 | II (“II” represents 5-10 times) | > 7.70 | 6.00 to 6.70 | 6.70 to 7.70 | > 7.70
9 | CCn1c(NC(=O)c2cnc(N)nc2)nc2c(OC)c(OC[C@@H](O)CN3CCOCC3)ccc2c1=O [8b-27, (S)-2-amino-N-(3-ethyl-7-(2-hydroxy-3-morpholinopropoxy)-8-methoxy-4-oxo-3,4-dihydroquinazolin-2-yl) pyrimidine-5-carboxamide] | 6.70 to 7.70 | 6.00 to 6.70 | II (“II” represents 5-10 times) | > 7.70 | 6.00 to 6.70 | 6.70 to 7.70 | > 7.70

Source: patent US12404269B2, “Aminoquinazolinone and aminoisoquinolinone derivatives and application thereof” (ZHEJIANG UNIVERSITY, priority 2018, dated 2025)
